PMC4745898 (Science signaling, 2015)

Biological target: TRPA1 (Rattus norvegicus, UniProt Q6RI86)
Experiment: TIRF Ca2+ imaging of TRPA1 sparklets in cerebral artery endothelial cells
Type: cell-based

TRPA1, sequence (Q6RI86 whole entry): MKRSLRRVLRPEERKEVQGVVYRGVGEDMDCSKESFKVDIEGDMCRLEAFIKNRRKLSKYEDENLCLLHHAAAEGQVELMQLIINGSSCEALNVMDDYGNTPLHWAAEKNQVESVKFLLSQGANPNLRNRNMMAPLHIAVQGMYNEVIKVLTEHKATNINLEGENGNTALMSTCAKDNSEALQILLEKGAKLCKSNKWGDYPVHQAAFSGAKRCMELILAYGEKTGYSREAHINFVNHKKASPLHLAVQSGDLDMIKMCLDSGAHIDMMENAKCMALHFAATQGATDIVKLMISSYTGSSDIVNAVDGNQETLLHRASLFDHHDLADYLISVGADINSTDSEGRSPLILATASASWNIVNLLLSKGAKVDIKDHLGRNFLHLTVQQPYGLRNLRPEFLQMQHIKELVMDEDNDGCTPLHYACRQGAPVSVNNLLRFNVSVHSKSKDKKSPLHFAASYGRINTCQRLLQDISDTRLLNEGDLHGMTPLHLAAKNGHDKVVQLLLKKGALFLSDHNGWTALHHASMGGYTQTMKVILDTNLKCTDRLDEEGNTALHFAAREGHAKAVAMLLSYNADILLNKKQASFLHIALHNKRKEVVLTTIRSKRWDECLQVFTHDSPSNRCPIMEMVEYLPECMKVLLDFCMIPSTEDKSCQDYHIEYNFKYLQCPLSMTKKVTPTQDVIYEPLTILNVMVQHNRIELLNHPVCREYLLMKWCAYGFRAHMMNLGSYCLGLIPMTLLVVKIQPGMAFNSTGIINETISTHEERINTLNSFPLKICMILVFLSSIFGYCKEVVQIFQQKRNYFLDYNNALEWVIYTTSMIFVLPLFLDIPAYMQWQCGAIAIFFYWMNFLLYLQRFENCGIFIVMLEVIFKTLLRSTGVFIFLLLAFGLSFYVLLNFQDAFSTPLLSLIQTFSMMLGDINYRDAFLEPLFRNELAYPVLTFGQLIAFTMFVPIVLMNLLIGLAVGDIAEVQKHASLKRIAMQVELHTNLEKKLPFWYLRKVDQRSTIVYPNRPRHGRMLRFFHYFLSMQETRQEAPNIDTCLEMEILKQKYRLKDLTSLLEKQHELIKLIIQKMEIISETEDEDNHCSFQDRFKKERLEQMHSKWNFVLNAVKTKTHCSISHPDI

- EC50: 64.8 ± 50.4 nM
Compound: CCCCCC(O)C=CC=O (stereo not shown) [4-HNE]
